# Reference: US6835728B2, “Drug combination for the treatment of depression and related disorders comprising mirtazapine” (Akzo Nobel N.V., priority 2001, dated 2004)
# Marks after values point to notes of the source that are not given here.
# Legend:
# Assay type in all cases: in vivo
# Sprague-Dawley rats [1] = test: EEG sleep-waking behaviour test in rats; conditions: rat, I.P., change over control
# Experimental: The aim of this test was to characterise the effects on rat sleep-waking behaviour of gepirone alone and of gepirone after co-administration with mirtazapine. To this end additionally the effects of mirtazapine on it own were investigated. Sleep-waking behaviour was analysed by using electroencephalographic (EEG) recordings, electromyographic (EMG) recordings, and by recording a movement index. On the basis of these signals sleep-waking behaviour was automatically classified per 2 second periods into 6 classes: active waking, passive waking, light sleep, deep sleep, intermediate stage sleep and REM sleep (Ruigt et al. A large scale automated system for rat sleep staging. I. Methodology and technical aspects. Electroenceph. and Clin. Neurophysiol.; 1989; 73:52-64). Each experiment is performed simultaneously on 32 adult male Sprague-Dawley rats (Harlan Olac, Bicester, UK, weighing […]), subdivided into four treatment groups. Throughout the whole experiment the animals stay in recording cages and are only taken out to be injected with vehicle or test compound(s). Each experiment contains three sessions. The first session (“test session”), commencing at 10:00 AM with a variable duration of 2-5 hours, serves as adaptation period and is used to assess the quality of the EEG and EMG signals recorded. The second and third sessions both start at 2:30 PM on two consecutive days and have a duration of 15.5 hours each. At the start of the second session all groups receive a vehicle treatment, at the start of the third session all groups receive their test compound(s). One of the treatment groups usually receives the vehicle treatment in both sessions to serve as a baseline for the other groups in the experiment. Separate experiments were done in which different single I.P. administered doses of either gepirone (1.0, 3.0, 10.0 mg/kg), or mirtazapine (2.2, 4.6, 10 mg/kg), or mirtazapine (2.2 mg/kg) in combination with gepirone (1.0, 3.0, 10 mg/kg) were tested. Gepirone was dissolved in 0.9% NaCl m/v in water (saline); mirtazapine was dissolved in 5% m/v Mulgofen (EL 719, GAF) in saline (=0.9% m/v NaCl in water). The drug-induced changes in sleep waking behaviours after I.P. administration of mirtazapine, gepirone, and mirtazapine in combination with gepirone are presented in Tables II, III and IV. […]
# Sprague-Dawley rats [2] = test: Psychotropic drug class prediction by discriminant analysis of effects on rat sleep-waking behaviour; conditions: I.P.
# Experimental: The effect profiles for these compounds at active doses were subjected to a discriminant analysis over these 6 psychoactive classes with placebo being added as an extra class. The resulting discriminant function was used to predict the pharmaco-therapeutic application area for gepirone alone and after co-administration with mirtazapine. Finally, the effect profiles of gepirone, mirtazapine, and the combination of gepirone and mirtazapine were calculated on the basis of vectors derived from the changes in sleep-wake organisation as shown in tables above. For each dose, the probability that the compound belongs to one of 7 defined classes was calculated.
# mice = test: Defensive (marble) burying test in mice; conditions: mouse, administered alone, S.C., pre-treatment 30 min
# From the text: Marble burying has been developed and validated as a pre-clinical assay of potential anxiolytic activity (Andrews and Broekkamp (1993). Procedures to identify anxiolytic or anxiogenic agents. In Behavioural Neuroscience, ed. A Sahgal, pp. 37-54. IRL Press, Oxford). The marble burying test places a naive mouse into a novel environment containing 25 marbles (arranged on top of a saw dust surface). A reduction in the number of marbles buried by the mouse has been hypothesised to be an anxiolytic-like/anti-depressant-like effect.
# A further series of three separate experiments were conducted during which three single doses of mirtazapine (0.3, 1, 3 mg.kg^−1) were co-administered S.C. with a range of S.C. gepirone doses (0, 0.1, 0.3, 1, 3 mg.kg^−1).
# [3] = gepir 1.0 mg/kg, 0 to 3 hours after drug injection
# [4] = gepir 1.0 mg/kg, 3 to 6 hours after drug injection
# [5] = gepir 1.0 mg/kg, 9 to 15 hours after drug injection
# [6] = gepir 3.0 mg/kg, 0 to 3 hours after drug injection
# [7] = gepir 3.0 mg/kg, 3 to 6 hours after drug injection
# [8] = gepir 3.0 mg/kg, 9 to 15 hours after drug injection
# [9] = gepir 10.0 mg/kg, 0 to 3 hours after drug injection
# [10] = gepir 10.0 mg/kg, 3 to 6 hours after drug injection
# [11] = gepir 10.0 mg/kg, 9 to 15 hours after drug injection
# [12] = mirt 2.2 mg/kg, 0 to 3 hours after drug injection
# [13] = mirt 2.2 mg/kg, 3 to 6 hours after drug injection
# [14] = mirt 2.2 mg/kg, 9 to 15 hours after drug injection
structure (smiles),measurement,setting,value
"CC1(C)CC(=O)N(CCCCN2CCN(c3ncccn3)CC2)C(=O)C1 [Gepirone, gepirone]",Latency from time of injection to Deep sleep,Sprague-Dawley rats [1]; [3],24%
same,Latency from time of injection to REM sleep,Sprague-Dawley rats [1]; [3],3%
same,Median duration Active waking,Sprague-Dawley rats [1]; [3],−58* %
same,Median duration Deep sleep,Sprague-Dawley rats [1]; [3],−2%
same,Median duration Intermediate sleep,Sprague-Dawley rats [1]; [3],−11%
same,Median duration Light sleep,Sprague-Dawley rats [1]; [3],23%
same,Median duration Passive waking,Sprague-Dawley rats [1]; [3],13%
same,Median duration REM sleep,Sprague-Dawley rats [1]; [3],4%
same,Median duration Active waking,Sprague-Dawley rats [1]; [4],6%
same,Median duration Deep sleep,Sprague-Dawley rats [1]; [4],−5%
same,Median duration Intermediate sleep,Sprague-Dawley rats [1]; [4],32%
same,Median duration Light sleep,Sprague-Dawley rats [1]; [4],8%
same,Median duration Passive waking,Sprague-Dawley rats [1]; [4],5%
same,Median duration REM sleep,Sprague-Dawley rats [1]; [4],20%
same,Median duration Deep sleep,Sprague-Dawley rats [1]; [5],2%
same,Median duration Intermediate sleep,Sprague-Dawley rats [1]; [5],−2%
same,Median duration Light sleep,Sprague-Dawley rats [1]; [5],14%
same,Median duration Passive waking,Sprague-Dawley rats [1]; [5],38%
same,Median duration REM sleep,Sprague-Dawley rats [1]; [5],−12%
same,Median duration Active waking,Sprague-Dawley rats [1]; gepir 1.0 mg/kg,−16%
same,Latency from time of injection to Deep sleep,Sprague-Dawley rats [1]; [6],24%
same,Latency from time of injection to REM sleep,Sprague-Dawley rats [1]; [6],360* %
same,Median duration Active waking,Sprague-Dawley rats [1]; [6],−8%
same,Median duration Deep sleep,Sprague-Dawley rats [1]; [6],−21%
same,Median duration Intermediate sleep,Sprague-Dawley rats [1]; [6],−76%
same,Median duration Light sleep,Sprague-Dawley rats [1]; [6],8%
same,Median duration Passive waking,Sprague-Dawley rats [1]; [6],156* %
same,Median duration REM sleep,Sprague-Dawley rats [1]; [6],−83* %
same,Median duration Active waking,Sprague-Dawley rats [1]; [7],30%
same,Median duration Deep sleep,Sprague-Dawley rats [1]; [7],−6%
same,Median duration Intermediate sleep,Sprague-Dawley rats [1]; [7],64* %
same,Median duration Light sleep,Sprague-Dawley rats [1]; [7],−2%
same,Median duration Passive waking,Sprague-Dawley rats [1]; [7],13%
same,Median duration REM sleep,Sprague-Dawley rats [1]; [7],−3%
same,Median duration Active waking,Sprague-Dawley rats [1]; [8],−37* %
same,Median duration Deep sleep,Sprague-Dawley rats [1]; [8],−7%
same,Median duration Intermediate sleep,Sprague-Dawley rats [1]; [8],36%
same,Median duration Light sleep,Sprague-Dawley rats [1]; [8],67%
same,Median duration Passive waking,Sprague-Dawley rats [1]; [8],55%
same,Median duration REM sleep,Sprague-Dawley rats [1]; [8],40%
same,Latency from time of injection to Deep sleep,Sprague-Dawley rats [1]; [9],268%
same,Latency from time of injection to REM sleep,Sprague-Dawley rats [1]; [9],673* %
same,Median duration Active waking,Sprague-Dawley rats [1]; [9],72%
same,Median duration Deep sleep,Sprague-Dawley rats [1]; [9],−63* %
same,Median duration Intermediate sleep,Sprague-Dawley rats [1]; [9],−100* %
same,Median duration Light sleep,Sprague-Dawley rats [1]; [9],−2%
same,Median duration Passive waking,Sprague-Dawley rats [1]; [9],198%
same,Median duration REM sleep,Sprague-Dawley rats [1]; [9],−100* %
same,Median duration Active waking,Sprague-Dawley rats [1]; [10],−18%
same,Median duration Deep sleep,Sprague-Dawley rats [1]; [10],−19%
same,Median duration Intermediate sleep,Sprague-Dawley rats [1]; [10],56%
same,Median duration Light sleep,Sprague-Dawley rats [1]; [10],35%
same,Median duration Passive waking,Sprague-Dawley rats [1]; [10],−40%
same,Median duration REM sleep,Sprague-Dawley rats [1]; [10],−50* %
same,Median duration Active waking,Sprague-Dawley rats [1]; [11],−23* %
same,Median duration Deep sleep,Sprague-Dawley rats [1]; [11],−5%
same,Median duration Intermediate sleep,Sprague-Dawley rats [1]; [11],108* %
same,Median duration Light sleep,Sprague-Dawley rats [1]; [11],23%
same,Median duration Passive waking,Sprague-Dawley rats [1]; [11],7%
same,Median duration REM sleep,Sprague-Dawley rats [1]; [11],64%
same,Probability score AC (anticonvulsant),Sprague-Dawley rats [2]; gepirone 1.0 mg/kg,7%
same,Probability score AD (antidepressant),Sprague-Dawley rats [2]; gepirone 1.0 mg/kg,1%
same,Probability score APS (antipsychotic),Sprague-Dawley rats [2]; gepirone 1.0 mg/kg,31%
same,Probability score AXL (anxiolytic),Sprague-Dawley rats [2]; gepirone 1.0 mg/kg,6%
same,Probability score HYP (hypnotic),Sprague-Dawley rats [2]; gepirone 1.0 mg/kg,20%
same,Probability score PLAC (placebo),Sprague-Dawley rats [2]; gepirone 1.0 mg/kg,35%
same,Probability score STIM (stimulant),Sprague-Dawley rats [2]; gepirone 1.0 mg/kg,0%
same,Probability score AC (anticonvulsant),Sprague-Dawley rats [2]; gepirone 3.0 mg/kg,29%
same,Probability score AD (antidepressant),Sprague-Dawley rats [2]; gepirone 3.0 mg/kg,28%
same,Probability score APS (antipsychotic),Sprague-Dawley rats [2]; gepirone 3.0 mg/kg,14%
same,Probability score AXL (anxiolytic),Sprague-Dawley rats [2]; gepirone 3.0 mg/kg,15%
same,Probability score HYP (hypnotic),Sprague-Dawley rats [2]; gepirone 3.0 mg/kg,9%
same,Probability score PLAC (placebo),Sprague-Dawley rats [2]; gepirone 3.0 mg/kg,6%
same,Probability score STIM (stimulant),Sprague-Dawley rats [2]; gepirone 3.0 mg/kg,0%
same,Probability score AC (anticonvulsant),Sprague-Dawley rats [2]; gepirone 10.0 mg/kg,6%
same,Probability score AD (antidepressant),Sprague-Dawley rats [2]; gepirone 10.0 mg/kg,16%
same,Probability score APS (antipsychotic),Sprague-Dawley rats [2]; gepirone 10.0 mg/kg,3%
same,Probability score AXL (anxiolytic),Sprague-Dawley rats [2]; gepirone 10.0 mg/kg,63%
same,Probability score HYP (hypnotic),Sprague-Dawley rats [2]; gepirone 10.0 mg/kg,0%
same,Probability score PLAC (placebo),Sprague-Dawley rats [2]; gepirone 10.0 mg/kg,0%
same,Probability score STIM (stimulant),Sprague-Dawley rats [2]; gepirone 10.0 mg/kg,12%
same,ED50 marble burying,mice,2.16 mg/kg
"CN1CCN2c3ncccc3Cc3ccccc3C2C1 (centres unmarked) [Mirtazapine, mirtazapine]",Latency from time of injection to Deep sleep,Sprague-Dawley rats [1]; [12],−36%
same,Latency from time of injection to REM sleep,Sprague-Dawley rats [1]; [12],27%
same,Median duration Active waking,Sprague-Dawley rats [1]; [12],19%
same,Median duration Deep sleep,Sprague-Dawley rats [1]; [12],13%
same,Median duration Intermediate sleep,Sprague-Dawley rats [1]; [12],−85* %
same,Median duration Light sleep,Sprague-Dawley rats [1]; [12],7%
same,Median duration Passive waking,Sprague-Dawley rats [1]; [12],−5%
same,Median duration REM sleep,Sprague-Dawley rats [1]; [12],−88* %
same,Median duration Active waking,Sprague-Dawley rats [1]; [13],68%
same,Median duration Deep sleep,Sprague-Dawley rats [1]; [13],19%
same,Median duration Intermediate sleep,Sprague-Dawley rats [1]; [13],−74* %
same,Median duration Light sleep,Sprague-Dawley rats [1]; [13],10%
same,Median duration Passive waking,Sprague-Dawley rats [1]; [13],17%
same,Median duration REM sleep,Sprague-Dawley rats [1]; [13],−52* %
same,Median duration Active waking,Sprague-Dawley rats [1]; [14],−16%
same,Median duration Deep sleep,Sprague-Dawley rats [1]; [14],20%
same,Median duration Light sleep,Sprague-Dawley rats [1]; [14],27%
same,Median duration Passive waking,Sprague-Dawley rats [1]; [14],−8%
same,Median duration REM sleep,Sprague-Dawley rats [1]; [14],22%
same,Median duration Intermediate sleep,Sprague-Dawley rats [1]; mirt 2.2 mg/kg,111%
same,Probability score AC (anticonvulsant),Sprague-Dawley rats [2]; mirtazapine 2.2 mg/kg,9%
same,Probability score AD (antidepressant),Sprague-Dawley rats [2]; mirtazapine 2.2 mg/kg,22%
same,Probability score APS (antipsychotic),Sprague-Dawley rats [2]; mirtazapine 2.2 mg/kg,3%
same,Probability score AXL (anxiolytic),Sprague-Dawley rats [2]; mirtazapine 2.2 mg/kg,20%
same,Probability score HYP (hypnotic),Sprague-Dawley rats [2]; mirtazapine 2.2 mg/kg,29%
same,Probability score PLAC (placebo),Sprague-Dawley rats [2]; mirtazapine 2.2 mg/kg,16%
same,Probability score STIM (stimulant),Sprague-Dawley rats [2]; mirtazapine 2.2 mg/kg,0%
same,ED50 marble burying,mice,5.5 mg/kg
